Assay: HILIC, Waters ACQUITY UPLC BEH Amide, 100 × 2.1 mm, 1.7 µm; A: water + 0.125% formic acid + 10 mM ammonium formate; B: 5% water + 95% acetonitrile + 0.125% formic acid + 10 mM ammonium formate; gradient (min/%B) 0/100 2/100 7.7/70 9.5/40 10.25/30 12.75/100 17/100
Conditions: stereoisomer not certain

Row | Compound | LC retention time [min]
1 | CC1NCCOC1c1ccccc1 (stereo not drawn) [Phenmetrazine] | 4.04
2 | NC(CCOC(=O)CCC(=O)O)C(=O)O (stereo not drawn) [O-Succinylhomoserine] | 8.06
3 | Nc1nc2nc[nH]c2c(=O)[nH]1 [Guanine] | 6.4
4 | CC12CCC3C(CCC4CC(O)CCC43C)C1CCC2O (stereo not drawn) [Androstane-3,17-diol] | 0.96
5 | CCCCCCCCCCCCCCCCCC(=O)OCC(O)CO (stereo not drawn) [1-Monostearin] | 0.99
6 | Nc1ncnc2c1ncn2C1OC(COP(=O)(O)O)C(O)C1O (stereo not drawn) [Adenosine 5'-monophosphate] | 8.88
7 | O=C1Nc2ccc(Cl)cc2C(c2ccccc2)=NC1O (stereo not drawn) [Oxazepam] | 1.37
8 | CN(C)C=O [N,N-Dimethylformamide] | 1.29
9 | CC(C=CC1(O)C(C)=CC(=O)CC1(C)C)=CC(=O)O (stereo not drawn) [Abscisic acid] | 1.33
10 | COc1cc(C)nc(-n2nc(C)cc2OC)n1 [Mepirizole] | 1.03
11 | CSCCC(NC=O)C(=O)O (stereo not drawn) [N-Formylmethionine] | 3.93
12 | NC1C(O)OC(CO)C(O)C1O (stereo not drawn) [Galactosamine] | 8.44
13 | CN1C(=O)CN=C(c2ccccc2)c2cc(Cl)ccc21 [Diazepam] | 1.1
14 | CNc1ccccc1C(=O)O [N-Methylanthranilic acid] | 1.22
15 | Cc1cnc(=O)[nH]c1N [5-Methylcytosine] | 6.62
16 | O=C(O)C=Cc1cnc[nH]1 [Urocanic acid] | 3.69
17 | Cc1ncc(CO)c(C=O)c1O [Pyridoxal] | 2.18
18 | Cn1c(=O)[nH]c2[nH]c(=O)n(C)c2c1=O [1,7-Dimethyluric acid] | 4.09
19 | Cn1c[n+](C2OC(CO)C(O)C2O)c2nc(N)nc([O-])c21 (stereo not drawn) [7-Methylguanosine] | 7.34

Row | Compound | LC retention time [min]
20 | COc1ccc2[nH]cc(CCN)c2c1 [5-Methoxytryptamine] | 4.99
21 | NC(CCC(=O)NC(CSSCC(NC(=O)CCC(N)C(=O)O)C(=O)NCC(=O)O)C(=O)NCC(=O)O)C(=O)O (stereo not drawn) [Glutathione (oxidized)] | 10.2
22 | CNC(C)Cc1ccccc1 (stereo not drawn) [Methamphetamine] | 3.33
23 | COC1C(CO)OC(n2ccc(=O)[nH]c2=O)C1O (stereo not drawn) [3'-O-Methyluridine] | 2.42
24 | NCCO [Ethanolamine] | 7.15
25 | CCCCCC(=O)OC(CC(=O)[O-])C[N+](C)(C)C [Hexanoyl-L-carnitine] | 5.09
26 | CC(N)C(O)c1ccccc1 (stereo not drawn) [Phenylpropanolamine] | 5.29
27 | C[N+]1(C)CCCC1C(=O)O (stereo not drawn) [Stachydrine] | 7.1
28 | CC(=O)OCC[C@H](N)C(=O)O [O-Acetyl-L-homoserine] | 7.6
29 | OCC1OC(OC2C(O)OC(CO)C(O)C2O)C(O)C(O)C1O (stereo not drawn) [2-alpha-Mannobiose] | 9.47
30 | CC(C)=CCNc1ncnc2c1ncn2C1OC(CO)C(O)C1O (stereo not drawn) [N6-Isopentenyladenosine] | 1.48
31 | O=C(O)C1CC(O)CN1 (stereo not drawn) [Hydroxyproline] | 8.14
32 | NCCCCC(N)C(=O)O (stereo not drawn) [Lysine] | 9.54
33 | O=C1CN=C(c2ccccc2)c2cc(Cl)ccc2N1CC1CC1 [Prazepam] | 1.07
34 | CSCCC(NC(=O)CCC(N)C(=O)O)C(=O)O (stereo not drawn) [gamma-Glutamylmethionine] | 8.55
35 | COC(=O)CN [Methylglycinate] | 5.29
36 | CCC=CCC1C(=O)CCC1CC(=O)OC (stereo not drawn) [Methyl jasmonate] | 1.04
37 | [NH3+]CC(=O)N1CCCC1C(=O)[O-] (stereo not drawn) [Gly-Pro] | 8.62
38 | CS(=O)(=O)Nc1ccc(Cc2noc(-c3ccc4[nH]cc(CCN)c4c3)n2)cc1 [L-694,247] | 5.25

Row | Compound | LC retention time [min]
39 | NC(=O)c1ccc[n+](C2OC(CO)C(O)C2O)c1 (stereo not drawn) [Nicotinamide riboside cation] | 7.51
40 | Oc1ccc2c3c1OC1c4[nH]c5ccccc5c4CC4(O)C(C2)N(CC2CC2)CCC314 (stereo not drawn) [Naltrindole] | 4.45
41 | COc1cc(C=CC=O)ccc1O [Coniferylaldehyde] | 1.14
42 | CCCCCCCCCOc1ccc2[nH]cc(CCN)c2c1 [5-Nonyloxytryptamine] | 3.4
43 | CCC(=O)OC(Cc1ccccc1)(c1ccccc1)C(C)CN(C)C (stereo not drawn) [Propoxyphene] | 2.01
44 | COc1cccc(C2(O)CCCCC2CN(C)C)c1 (stereo not drawn) [Tramadol] | 2.52
45 | CC(C)(C)NCC(O)c1ccc(O)c(CO)c1 (stereo not drawn) [Albuterol] | 5.55
46 | C=C(C)CN1CCC23c4c5ccc(O)c4OC2c2[nH]c4ccccc4c2CC3(O)C1C5 (stereo not drawn) | 2.93
47 | O=C(O)C1CCCCN1 (stereo not drawn) [Pipecolic acid] | 7.83
48 | CSCCC(=O)C(=O)O [alpha-Keto-gamma-(methylthio)butyric acid] | 0.92
49 | CC(C)CC(N)C(=O)O (stereo not drawn) [Leucine] | 7.08
50 | c1ncc2[nH]cnc2n1 [Purine] | 2.44
51 | NC(N)=NC(=O)c1nc(Cl)c(N)nc1N [Amiloride] | 5.52
52 | CCNC(=O)CCC(N)C(=O)O (stereo not drawn) [Theanine] | 7.66
53 | NCCc1ccccn1 [2-(2-Aminoethyl)pyridine] | 5.52
54 | CC(OC1C(N)C(O)OC(CO)C1O)C(=O)O (stereo not drawn) [Muramic acid] | 8.28
55 | CC(=O)OCC(CCn1cnc2cnc(N)nc21)COC(C)=O [Famciclovir] | 1.38
56 | Br.CN1CCC2(c3cccc(O)c3)Cc3nc4ccccc4cc3CC2C1.O (stereo not drawn) | 5.11
57 | CC(C)CC(=O)OC(CC(=O)[O-])C[N+](C)(C)C [Isovaleryl-L-carnitine] | 5.36

Now from value to compound:

Row | LC retention time [min] | Compound
58 | 2.64 | O=C(c1ccc(F)cc1)C1CCN(CCn2c(=S)[nH]c3ccccc3c2=O)CC1 [Altanserin]
59 | 3.92 | Nc1ncnc2c1ncn2C1CC(O)C(CO)O1 (stereo not drawn) [2'-Deoxyadenosine]
60 | 4.31 | CNS(=O)(=O)Cc1ccc2[nH]cc(CCN(C)C)c2c1 [Sumatriptan]
61 | 2.94 | CCN(CC)CC1CCCCN1CC(=O)N1c2ccccc2C(=O)Nc2cccnc21 (stereo not drawn) [Otenzepad]
62 | 1.06 | CC(=O)Oc1ccc2c(C)cc(=O)oc2c1 [4-Methylumbelliferyl acetate]
63 | 2.61 | CN(C)CCCSc1ccccc1NC(=O)C=Cc1ccccc1 [Cinanserin]
64 | 0.97 | CCC(C)n1ncn(-c2ccc(N3CCN(c4ccc(OCC5COC(Cn6cncn6)(c6ccc(Cl)cc6Cl)O5)cc4)CC3)cc2)c1=O (stereo not drawn) [Itraconzaole]
65 | 1.36 | NC(=O)Cc1c[nH]c2ccccc12 [Indole-3-acetamide]
66 | 1 | CC#CC1(O)CCC2C3CCC4=CC(=O)CCC4=C3C(c3ccc(N(C)C)cc3)CC21C (stereo not drawn) [Mifepristone]
67 | 1.32 | COc1ccc2[nH]cc(CC(=O)O)c2c1 [5-Methoxy-3-indoleacetic acid]
68 | 5.61 | NC(C(=O)NC1C(=O)N2C(C(=O)O)=C(Cl)CSC12)c1ccccc1 (stereo not drawn) [Cefaclor]
69 | 3.65 | COc1ccc(C(=O)NCc2ccc(OCCN(C)C)cc2)cc1OC [Itopride]
70 | 1.3 | O=C1CC(c2ccc(O)cc2)Oc2cc(O)ccc21 (stereo not drawn) [Liquiritigenin]
71 | 1.88 | CCc1nn(CCCN2CCN(c3cccc(Cl)c3)CC2)c(=O)n1CCOc1ccccc1 [Nefazodone]
72 | 3.45 | CCOC(=O)c1ccc(OC(=O)CCCCCN=C(N)N)cc1 [Gabexate]
73 | 3.13 | COC(=O)CCc1ccc(OCC(O)CNC(C)C)cc1 (stereo not drawn) [Esmolol]
74 | 2.96 | Cc1cccc(C)c1NC(=O)C1CCCCN1C (stereo not drawn) [Mepivacaine]
75 | 1.16 | COC(=O)Nc1nc2ccc(C(=O)c3ccc(F)cc3)cc2[nH]1 [Flubendazole]

Row | LC retention time [min] | Compound
76 | 1.16 | COc1cc2ccc(=O)oc2cc1O [Scopoletin]
77 | 6.22 | CNC(Cc1ccccc1)C(=O)O (stereo not drawn) [N-Methylphenylalanine]
78 | 2.01 | CC[N+](C)(CC)CCOC(=O)C(O)(c1ccccc1)C1CCCCC1 (stereo not drawn) [Oxyphenonium]
79 | 2.66 | Cc1ncc(CO)c(C(=O)O)c1O [4-Pyridoxic acid]
80 | 5.61 | CC1OC(OC2C(Oc3cc(O)c4c(c3)OC(c3ccc(O)cc3)CC4=O)OC(CO)C(O)C2O)C(O)C(O)C1O (stereo not drawn) [Naringin]
81 | 7.73 | CC(=O)Nc1ccc(OC2OC(C(=O)O)C(O)C(O)C2O)cc1 (stereo not drawn) [Acetaminophen glucuronide]
82 | 4.19 | Cc1[nH]cnc1CN1CCc2c(c3ccccc3n2C)C1=O [Alosetron]
83 | 1.16 | Cc1ccnc2c1NC(=O)c1cccnc1N2C1CC1 [Viramune]
84 | 1.21 | NC(=O)N1c2ccccc2C=Cc2ccccc21 [Carbamazepine]
85 | 3.38 | CN(CCOc1ccc(NS(C)(=O)=O)cc1)CCc1ccc(NS(C)(=O)=O)cc1 [Dofetilide]
86 | 3.08 | CN1CCN2c3ncccc3Cc3ccccc3C2C1 (stereo not drawn) [Mirtazapine]
87 | 1.45 | Cc1cccc(Nc2ccncc2S(=O)(=O)NC(=O)NC(C)C)c1 [Torasemide]
88 | 1.22 | O=c1[nH]c(=O)n(C2CCCO2)cc1F (stereo not drawn) [Tegafur]
89 | 1.18 | O=Cc1ccc(O)cc1 [4-Hydroxybenzaldehyde]
90 | 1.07 | O=C1C(c2c(O)[nH]c3ccccc23)=Nc2ccccc21 [Indarubicin]
91 | 7.48 | NC(Cc1c[nH]c2ccc(O)cc12)C(=O)O (stereo not drawn) [5-Hydroxytryptophan]
92 | 7.05 | O=P(O)(O)Oc1ccccc1 [Phenylphosphoric acid]
93 | 1.15 | O=C(O)c1ccccc1C(=O)O [Phthalic acid]

Reference: the RepoRT retention time repository
